Measurements published in ChEMBL document CHEMBL2021797, “Synthesis and structure-activity relationship study of antimicrotubule agents phenylahistin derivatives with a didehydropiperazine-2,5-dione structure” (J Med Chem, 2012).

Legend:
HUVEC [1] = assay: Induction of microtubule depolymerization in HUVEC after 30 mins by DAPI staining method; assay type: cell-based; details: Homo sapiens
HeLa [2] = assay: Induction of cell cycle arrest in human HeLa cells assessed as accumulation at S phase at 10 nM after 18 hrs by propidium iodide based flow cytometric analysis (reference value: 39.9 %); assay type: functional
HeLa [3] = assay: Induction of cell cycle arrest in human HeLa cells assessed as accumulation at G2/M phase at 100 nM after 18 hrs by propidium iodide based flow cytometric analysis (reference value: 16.2 %); assay type: functional
HeLa [4] = assay: Induction of cell cycle arrest in human HeLa cells assessed as accumulation at G2/M phase at 30 nM after 18 hrs by propidium iodide based flow cytometric analysis (reference value: 16.2 %); assay type: functional
HeLa [5] = assay: Induction of cell cycle arrest in human HeLa cells assessed as accumulation at G0/G1 phase at 100 nM after 18 hrs by propidium iodide based flow cytometric analysis (reference value: 43.9 %); assay type: functional
HeLa [6] = assay: Induction of cell cycle arrest in human HeLa cells assessed as accumulation at G0/G1 phase at 30 nM after 18 hrs by propidium iodide based flow cytometric analysis (reference value: 43.9 %); assay type: functional
HUVEC [7] = assay: Cytotoxicity against HUVEC after 48 hrs using resazurin by microplate fluorometer analysis; assay type: cell-based; details: Homo sapiens
HeLa [8] = assay: Induction of cell cycle arrest in human HeLa cells assessed as accumulation at S phase at 100 nM after 18 hrs by propidium iodide based flow cytometric analysis (reference value: 39.9 %); assay type: functional
DU-145 [9] = assay: Antitumor activity against human DU145 cells xenografted in nu/nu mouse assessed as tumor growth inhibition at 3.75 mg/kg, ip administered on day 1, 3, 5, 8 and […] measured on day 40 relative to control; assay type: functional; details: DU-145, ip, route intraperitoneal, read-out: TGI
DU-145 [10] = assay: Antitumor activity against human DU145 cells xenografted in nu/nu mouse assessed as tumor growth inhibition at 7.5 mg/kg, ip administered on day 1, 3, 5, 8 and […] measured on day 40 relative to control; assay type: functional; details: DU-145, ip, route intraperitoneal, read-out: TGI
Mus musculus = assay: Toxicity in nu/nu mouse assessed as weight loss at 1.25 to 7.5 mg/kg, ip after 40 days; assay type: organism-based; details: in vivo, 960 h
DU-145 [11] = assay: Antitumor activity against human DU145 cells xenografted in nu/nu mouse assessed as tumor growth inhibition at […], ip administered on day 1, 3, 5, 8 and […] measured on day 40 relative to control; assay type: functional; details: DU-145, ip, read-out: TGI
DU-145 [12] = details: Homo sapiens
[13] = Binding affinity to bovine tubulin after 1 hr by spectrofluorometric analysis; design: species or system Bos taurus
HeLa [14] = assay: Induction of cell cycle arrest in human HeLa cells assessed as accumulation at G0/G1 phase at 10 nM after 18 hrs by propidium iodide based flow cytometric analysis (reference value: 43.9 %); assay type: functional
[15] = Inhibition of bovine brain tubulin polymerization by thermostatic spectrophotometer; design: species or system Bos taurus
HeLa [16] = assay: Induction of cell cycle arrest in human HeLa cells assessed as accumulation at G2/M phase at 10 nM after 18 hrs by propidium iodide based flow cytometric analysis (reference value: 16.2 %); assay type: functional
HeLa [17] = assay: Induction of cell cycle arrest in human HeLa cells assessed as accumulation at S phase at 30 nM after 18 hrs by propidium iodide based flow cytometric analysis (reference value: 39.9 %); assay type: functional
HT-29 = assay: Cytotoxicity against human HT-29 cells after 48 hrs using resazurin by microplate fluorometer analysis; assay type: functional, cell-based; details: HT-29, 48 h
HeLa [18] = assay: Induction of cell cycle arrest in human HeLa cells assessed as accumulation at G0/G1 phase at 3 nM after 18 hrs by propidium iodide based flow cytometric analysis (reference value: 43.9 %); assay type: functional
HeLa [19] = assay: Induction of cell cycle arrest in human HeLa cells assessed as accumulation at S phase at 3 nM after 18 hrs by propidium iodide based flow cytometric analysis (reference value: 39.9 %); assay type: functional
HeLa [20] = assay: Induction of cell cycle arrest in human HeLa cells assessed as accumulation at G2/M phase at 3 nM after 18 hrs by propidium iodide based flow cytometric analysis (reference value: 16.2 %); assay type: functional

SMILES	ED100 (HUVEC [1]) [nM]	Activity (HeLa [2]) [%]	Activity (HeLa [4]) [%]	Activity (HeLa [6]) [%]	IC50 (HUVEC [7]) [nM]	Kd [13] [nM]	Activity (HeLa [14]) [%]	IC50 [15] [nM]	Activity (HeLa [16]) [%]	Activity (HeLa [17]) [%]	IC50 (HT-29) [nM]	other results
CC(C)(C)c1[nH]cnc1/C=c1\[nH]c(=O)/c(=C/c2ccccc2)[nH]c1=O [PLINABULIN]	3	37.5	55.3	4.2	11	1000	44.6	1310	17.9	40.4		Activity (HeLa [3]): 97.6%; Activity (HeLa [5]): 0%; Activity (HeLa [8]): 2.4%; inhibition in vivo at 3.75 mg/kg (DU-145 [9]): 38.6%; inhibition in vivo at 7.5 mg/kg (DU-145 [10]): 58.5%; Activity (Mus musculus): Non-toxic; inhibition in vivo at […] (DU-145 [11]): 29%; TGI (DU-145 [12]): Dose-dependent effect
COc1cc(/C=c2\[nH]c(=O)/c(=C/c3nc[nH]c3C(C)(C)C)[nH]c2=O)cc(OC)c1											45.4	
COc1ccc(/C=C\c2cc(OC)c(OC)c(OC)c2)cc1O [COMBRETASTATIN A4]	10	8.8			2.4		0.4	550	90.7			Activity (HeLa [18]): 34.6%; Activity (HeLa [19]): 28.1%; Activity (HeLa [20]): 37.4%
COc1cc2c(c(OC)c1OC)-c1ccc(OC)c(=O)cc1[C@@H](NC(C)=O)CC2 [COLCHICINE]		31.5	89.9	1.3		[…]	47.5		21	8.9	16	
